Laboratory results taken from ChEMBL document CHEMBL1140531, “New functional assay of P-glycoprotein activity using Hoechst 33342” (Bioorg Med Chem, 2007).

Columns and labels:
[1] = target: T1, ATP-dependent translocase ABCB1 (Homo sapiens, UniProt P08183); assay: Inhibition of P-glycoprotein expressed in MDCK-MDR1 cells by calcein AM assay; format: cell-based
[2] = target: T1, ATP-dependent translocase ABCB1; assay: Inhibition of P-glycoprotein by Hoechst assay
[3] = target: T1, ATP-dependent translocase ABCB1; assay: Inhibition of P-glycoprotein expressed in A2780/ADR cells by calcein AM assay; format: cell-based
[4] = Cytotoxicity against human A2780/ADR cells after 72 hrs by MTT assay; format: functional, cell-based
A2780 = assay: Cytotoxicity against human A2780 cells after 72 hrs by MTT assay; format: functional, cell-based; details: A2780, 72 h

T1 sequence (P08183 whole entry): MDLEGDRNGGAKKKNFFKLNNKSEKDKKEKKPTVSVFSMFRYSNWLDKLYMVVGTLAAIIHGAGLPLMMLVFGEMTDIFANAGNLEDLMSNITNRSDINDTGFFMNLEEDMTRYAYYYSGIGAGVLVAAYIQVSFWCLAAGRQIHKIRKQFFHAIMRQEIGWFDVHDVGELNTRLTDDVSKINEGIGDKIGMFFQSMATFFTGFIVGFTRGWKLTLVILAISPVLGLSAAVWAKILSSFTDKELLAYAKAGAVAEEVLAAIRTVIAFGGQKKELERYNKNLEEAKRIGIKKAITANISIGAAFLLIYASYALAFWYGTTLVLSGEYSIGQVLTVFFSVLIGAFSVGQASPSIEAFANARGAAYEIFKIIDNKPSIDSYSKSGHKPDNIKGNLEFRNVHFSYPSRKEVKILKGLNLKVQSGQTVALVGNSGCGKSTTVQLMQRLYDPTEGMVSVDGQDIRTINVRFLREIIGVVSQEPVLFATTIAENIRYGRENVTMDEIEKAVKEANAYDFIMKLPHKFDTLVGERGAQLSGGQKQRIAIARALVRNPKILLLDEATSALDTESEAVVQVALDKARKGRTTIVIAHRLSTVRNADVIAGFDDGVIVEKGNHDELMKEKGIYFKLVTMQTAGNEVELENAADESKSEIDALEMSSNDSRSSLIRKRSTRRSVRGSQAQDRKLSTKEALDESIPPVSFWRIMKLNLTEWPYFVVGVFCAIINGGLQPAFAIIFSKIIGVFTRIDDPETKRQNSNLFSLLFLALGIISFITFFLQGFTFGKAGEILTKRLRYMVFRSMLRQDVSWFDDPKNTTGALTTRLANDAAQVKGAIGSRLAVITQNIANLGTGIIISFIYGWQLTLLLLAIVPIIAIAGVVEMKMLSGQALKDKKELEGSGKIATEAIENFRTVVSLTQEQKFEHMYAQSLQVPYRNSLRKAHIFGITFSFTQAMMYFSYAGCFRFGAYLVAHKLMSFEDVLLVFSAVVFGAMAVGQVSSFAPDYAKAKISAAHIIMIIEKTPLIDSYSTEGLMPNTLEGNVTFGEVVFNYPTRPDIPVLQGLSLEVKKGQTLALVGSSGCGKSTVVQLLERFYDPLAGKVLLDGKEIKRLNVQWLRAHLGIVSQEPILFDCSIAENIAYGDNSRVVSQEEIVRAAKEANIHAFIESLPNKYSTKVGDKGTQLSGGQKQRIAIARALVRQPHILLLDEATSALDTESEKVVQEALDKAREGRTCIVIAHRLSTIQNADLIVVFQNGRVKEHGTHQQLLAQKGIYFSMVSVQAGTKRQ

Compound	Hill coefficient [1]	IC50 [2] [nM]	IC50 [3] [nM]	IC50 [4] [nM]	IC50 (A2780) [nM]
COc1ccc(C(=O)Nc2ccccc2C(=O)Nc2ccc(CCN3CCc4cc(OC)c(OC)cc4C3)cc2)cc1OC	2.89	331	339		
O=C(Nc1ccc(CCN2CCc3ccccc3C2)cc1)Nc1ccccc1NC(=O)c1cnc2ccccc2c1	2.6		813		
CCOc1ccc(-c2nc3cc(-c4nc5cc(N6CCN(C)CC6)ccc5[nH]4)ccc3[nH]2)cc1				38000	1910
COc1cc2c(cc1OC)CN(CCc1ccc(NC(=O)c3ccccc3NC(=O)c3ccccc3)cc1)CC2	2.01	513	851		
O=C(Nc1ccccc1C(=O)Nc1ccc(CCN2CCc3ccccc3C2)cc1)c1cnc2ccccc2c1	2.42	355	490		
COc1cc2c(c(OC)c1OC)-c1ccc(OC)c(=O)cc1[C@@H](NC(C)=O)CC2 [COLCHICINE]				372	22.9
COc1cccc2c1C(=O)c1c(O)c3c(c(O)c1C2=O)C[C@@](O)(C(C)=O)C[C@@H]3O[C@H]1C[C@H](N)[C@H](O)[C@H](C)O1 [DAUNORUBICIN]				18600	117
COc1ccc([C@@H]2Sc3ccccc3N(CCN(C)C)C(=O)[C@@H]2OC(C)=O)cc1 [DILTIAZEM]	1.15				
CC(=O)O[C@@]12CO[C@@H]1C[C@H](O)[C@@]1(C)C(=O)[C@H](O)C3=C(C)[C@@H](OC(=O)[C@H](O)[C@@H](NC(=O)OC(C)(C)C)c4ccccc4)C[C@@](O)([C@@H](OC(=O)c4ccccc4)[C@H]21)C3(C)C [DOCETAXEL]				87.1	4.9
COc1cccc2c1C(=O)c1c(O)c3c(c(O)c1C2=O)C[C@@](O)(C(=O)CO)C[C@@H]3O[C@H]1C[C@H](N)[C@H](O)[C@H](C)O1 [DOXORUBICIN]				13500	93.3
Cc1ccc(NC(=O)c2ccc(CN3CCN(C)CC3)cc2)cc1Nc1nccc(-c2cccnc2)n1 [IMATINIB]	1.18				
COC(=O)C1=C(C)NC(C)=C(C(=O)OCCN(C)Cc2ccccc2)C1c1cccc([N+](=O)[O-])c1 (stereo not drawn) [NICARDIPINE]	2.44				
CC(=O)[C@H]1CC[C@H]2[C@@H]3CCC4=CC(=O)CC[C@]4(C)[C@H]3CC[C@]12C [PROGESTERONE]	1.31				
COC(=O)[C@H]1[C@H]2C[C@@H]3c4[nH]c5cc(OC)ccc5c4CCN3C[C@H]2C[C@@H](OC(=O)c2cc(OC)c(OC)c(OC)c2)[C@@H]1OC [RESERPINE]	1.88	3020	3240		
COC(=O)c1ccccc1-c1c2ccc(=N)cc-2oc2cc(N)ccc12 [RHODAMINE123]				123000	1910
CC[C@]1(O)C[C@@H]2CN(CCc3c([nH]c4ccccc34)[C@@](C(=O)OC)(c3cc4c(cc3OC)N(C)[C@H]3[C@@](O)(C(=O)OC)[C@H](OC(C)=O)[C@]5(CC)C=CCN6CC[C@]43[C@@H]65)C2)C1 [VINBLASTINE]	2.06			2820	61.7
